Laboratory results published in ChEMBL document CHEMBL6182925 (J Med Chem, 2025).
≈ marks a conversion by molar mass, not a printed value. Each block holds one compound with its values, some of them ahead of it.

Key:
[1] = Kinetic solubility of compound at pH 4.5; assay type: physicochemical; conditions: buffer, read-out: Kinetic_solubility
BaF3 [2] = experiment: Antitumor activity against mouse BaF3 cells harboring TPR-D1228N mutant cells allografted in athymic BALB/c nude mouse at 10 mg/kg, po bid treated for 10 days relative to control; assay type: functional; conditions: BaF3, 240 h, time 10 day, read-out: TGI
[3] = Kinetic solubility of compound at pH 2; assay type: physicochemical; conditions: buffer, read-out: Kinetic_solubility
BaF3 [4] = experiment: cells; conditions: Mus musculus, BaF3, 72 h
[5] = Clearance in male Sprague-Dawley rat at 3 mg/kg, iv; assay type: ADME, organism-based; conditions: in vivo
Homo sapiens = species: Homo sapiens; experiment: Inhibition of sodium channel site 2 (unknown origin) at 10 uM by CEREP analysis relative to control
[6] = target: 5-hydroxytryptamine receptor 2B (Homo sapiens) (UniProt P41595); experiment: Inhibition of 5-HT2B receptor (unknown origin) at 10 uM by CEREP analysis relative to control
[7] = Half life in male Beagle dog at 2 mg/kg, iv; assay type: ADME, organism-based, Canis lupus familiaris; conditions: in vivo
[8] = Stability in monkey hepatocytes measured for 75 mins; assay type: ADME, cell-based, Macaca mulatta, Hepatocyte; conditions: rhesus monkey, 1.25 h
[9] = Volume of distribution in female Balb/c mouse at 5 mg/kg, iv; assay type: ADME, organism-based; conditions: in vivo
[10] = Stability in mouse hepatocytes measured for 127 mins; assay type: ADME, cell-based, Hepatocyte; conditions: 2.117 h
[11] = Volume of distribution in male Sprague-Dawley rat at 3 mg/kg, iv; assay type: ADME, organism-based; conditions: in vivo
[12] = Volume of distribution in male Beagle dog at 2 mg/kg, iv; assay type: ADME, organism-based, Canis lupus familiaris; conditions: in vivo
[13] = Oral bioavailability in male Sprague-Dawley rat at 30 mg/kg; assay type: ADME, organism-based; conditions: in vivo
[14] = Oral bioavailability in male Beagle dog at 30 mg/kg; assay type: ADME, organism-based, Canis lupus familiaris; conditions: in vivo
[15] = Oral bioavailability in female Balb/c mouse at 30 mg/kg; assay type: ADME, organism-based; conditions: in vivo
[16] = Stability in rat hepatocytes measured for 175 mins; assay type: ADME, cell-based, Hepatocyte; conditions: 2.917 h
[17] = Half life in female Balb/c mouse at 5 mg/kg, iv; assay type: ADME, organism-based; conditions: in vivo
[18] = Oral bioavailability in male Beagle dog at 15 mg/kg; assay type: ADME, organism-based, Canis lupus familiaris; conditions: in vivo
[19] = Oral bioavailability in Balb/c mouse at 10 mg/kg; assay type: ADME, organism-based; conditions: in vivo
[20] = Clearance in female Balb/c mouse at 5 mg/kg, iv; assay type: ADME, organism-based; conditions: in vivo
hERG = hERG (Homo sapiens, UniProt Q12809); experiment: Inhibition of hERG at 10 uM by CEREP analysis relative to control; assay type: toxicity
[21] = Half life in male Sprague-Dawley rat at 3 mg/kg, iv; assay type: ADME, organism-based; conditions: in vivo
L-type calcium channel = L-type calcium channel (Homo sapiens, UniProt O60840+Q01668+Q13698+Q13936); experiment: Inhibition of Calcium channel L-type (unknown origin) at 10 uM by CEREP analysis relative to control; assay type: protein assay
[22] = target: T1, Alpha-2A adrenergic receptor (Homo sapiens) (UniProt P08913); experiment: Inhibition of alpha 2A adrenergic receptor (unknown origin) at 10 uM by CEREP analysis relative to control
T1 sequence (whole entry): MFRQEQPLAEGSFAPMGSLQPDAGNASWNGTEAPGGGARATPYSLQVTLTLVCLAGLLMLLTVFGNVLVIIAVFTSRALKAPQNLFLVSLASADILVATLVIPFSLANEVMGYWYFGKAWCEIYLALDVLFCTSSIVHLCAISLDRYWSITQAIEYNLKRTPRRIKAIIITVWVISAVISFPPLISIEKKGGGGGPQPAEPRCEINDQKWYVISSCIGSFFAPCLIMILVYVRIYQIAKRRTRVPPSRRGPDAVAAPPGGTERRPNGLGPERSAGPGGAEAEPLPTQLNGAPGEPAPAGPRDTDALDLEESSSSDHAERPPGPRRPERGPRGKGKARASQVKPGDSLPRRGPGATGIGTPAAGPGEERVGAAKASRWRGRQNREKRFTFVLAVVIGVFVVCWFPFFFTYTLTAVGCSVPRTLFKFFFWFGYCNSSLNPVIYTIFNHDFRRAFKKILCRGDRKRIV

[23] = AUClast in male Beagle dog at 15 mg/kg, po; assay type: ADME, organism-based, Canis lupus familiaris; conditions: in vivo
[24] = AUClast in Balb/c mouse at 10 mg/kg, po; assay type: ADME, organism-based; conditions: in vivo
[25] = AUClast in male Sprague-Dawley rat at 10 mg/kg, po; assay type: ADME, organism-based; conditions: in vivo
[26] = Dose-normalized AUC in male Beagle dog at 15 mg/kg, po; assay type: ADME, organism-based, Canis lupus familiaris; conditions: in vivo
[27] = target: 3',5'-cyclic-AMP phosphodiesterase 4D (Homo sapiens) (UniProt Q08499); experiment: Inhibition of PDE4D2 (unknown origin) at 10 uM by CEREP analysis relative to control
[28] = target: Sodium-dependent serotonin transporter (Homo sapiens) (UniProt P31645); experiment: Inhibition of SERT (unknown origin) at 10 uM by CEREP analysis relative to control
[29] = Stability in dog hepatocytes; assay type: ADME, cell-based, Canis lupus familiaris, Hepatocyte
[30] = target: 5-hydroxytryptamine receptor 1B (Homo sapiens) (UniProt P28222); experiment: Inhibition of 5-HT1B receptor (unknown origin) at 10 uM by CEREP analysis relative to control
[31] = Dose-normalized AUC in male Sprague-Dawley rat at 10 mg/kg, po; assay type: ADME, organism-based; conditions: in vivo
[32] = Stability in human hepatocytes; assay type: ADME, cell-based, Hepatocyte
[33] = Clearance in male Beagle dog at 2 mg/kg, iv; assay type: ADME, organism-based, Canis lupus familiaris; conditions: in vivo
[34] = Oral bioavailability in male Sprague-Dawley rat at 10 mg/kg; assay type: ADME, organism-based; conditions: in vivo
[35] = target: cGMP-inhibited 3',5'-cyclic phosphodiesterase 3A (Homo sapiens) (UniProt Q14432); experiment: Inhibition of PDE3A (unknown origin) at 10 uM by CEREP analysis relative to control
[36] = Dose-normalized AUC in female Balb/c mouse at 10 mg/kg, po; assay type: ADME, organism-based; conditions: in vivo
cells = conditions: Mus musculus, BaF3/TRP-Met, 72 h

Chain of cGMP-inhibited 3',5'-cyclic phosphodiesterase 3A (Homo sapiens) (Q14432 whole entry): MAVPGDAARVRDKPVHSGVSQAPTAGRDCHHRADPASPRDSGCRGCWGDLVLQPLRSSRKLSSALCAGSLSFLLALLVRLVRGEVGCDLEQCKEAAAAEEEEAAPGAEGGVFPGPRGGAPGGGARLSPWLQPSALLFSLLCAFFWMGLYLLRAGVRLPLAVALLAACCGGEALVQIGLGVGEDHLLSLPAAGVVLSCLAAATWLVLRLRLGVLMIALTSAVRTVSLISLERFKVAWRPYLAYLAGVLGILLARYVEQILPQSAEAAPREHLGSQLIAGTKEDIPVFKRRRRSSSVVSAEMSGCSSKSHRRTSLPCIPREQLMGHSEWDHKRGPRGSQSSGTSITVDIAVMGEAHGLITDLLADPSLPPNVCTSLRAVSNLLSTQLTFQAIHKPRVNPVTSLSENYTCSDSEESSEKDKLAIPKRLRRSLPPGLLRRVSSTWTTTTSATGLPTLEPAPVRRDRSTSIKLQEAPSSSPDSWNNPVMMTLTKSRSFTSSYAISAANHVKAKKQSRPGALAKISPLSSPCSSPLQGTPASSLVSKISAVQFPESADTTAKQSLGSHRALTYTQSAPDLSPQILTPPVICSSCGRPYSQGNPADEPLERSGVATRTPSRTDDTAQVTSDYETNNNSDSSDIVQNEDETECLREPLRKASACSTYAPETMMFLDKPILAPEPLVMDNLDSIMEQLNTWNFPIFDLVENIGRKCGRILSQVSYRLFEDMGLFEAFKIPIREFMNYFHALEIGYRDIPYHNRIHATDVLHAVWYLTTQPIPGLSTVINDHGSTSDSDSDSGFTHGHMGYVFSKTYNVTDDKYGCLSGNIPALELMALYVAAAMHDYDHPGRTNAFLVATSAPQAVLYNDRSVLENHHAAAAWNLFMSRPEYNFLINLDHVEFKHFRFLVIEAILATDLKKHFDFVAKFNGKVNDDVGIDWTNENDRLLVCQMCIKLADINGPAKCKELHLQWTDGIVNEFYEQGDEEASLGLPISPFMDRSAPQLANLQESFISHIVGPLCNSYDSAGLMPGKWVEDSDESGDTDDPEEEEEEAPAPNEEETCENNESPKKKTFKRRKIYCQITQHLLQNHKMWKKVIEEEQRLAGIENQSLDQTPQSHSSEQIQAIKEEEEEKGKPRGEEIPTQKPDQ
Chain of 3',5'-cyclic-AMP phosphodiesterase 4D (Homo sapiens) (Q08499 whole entry): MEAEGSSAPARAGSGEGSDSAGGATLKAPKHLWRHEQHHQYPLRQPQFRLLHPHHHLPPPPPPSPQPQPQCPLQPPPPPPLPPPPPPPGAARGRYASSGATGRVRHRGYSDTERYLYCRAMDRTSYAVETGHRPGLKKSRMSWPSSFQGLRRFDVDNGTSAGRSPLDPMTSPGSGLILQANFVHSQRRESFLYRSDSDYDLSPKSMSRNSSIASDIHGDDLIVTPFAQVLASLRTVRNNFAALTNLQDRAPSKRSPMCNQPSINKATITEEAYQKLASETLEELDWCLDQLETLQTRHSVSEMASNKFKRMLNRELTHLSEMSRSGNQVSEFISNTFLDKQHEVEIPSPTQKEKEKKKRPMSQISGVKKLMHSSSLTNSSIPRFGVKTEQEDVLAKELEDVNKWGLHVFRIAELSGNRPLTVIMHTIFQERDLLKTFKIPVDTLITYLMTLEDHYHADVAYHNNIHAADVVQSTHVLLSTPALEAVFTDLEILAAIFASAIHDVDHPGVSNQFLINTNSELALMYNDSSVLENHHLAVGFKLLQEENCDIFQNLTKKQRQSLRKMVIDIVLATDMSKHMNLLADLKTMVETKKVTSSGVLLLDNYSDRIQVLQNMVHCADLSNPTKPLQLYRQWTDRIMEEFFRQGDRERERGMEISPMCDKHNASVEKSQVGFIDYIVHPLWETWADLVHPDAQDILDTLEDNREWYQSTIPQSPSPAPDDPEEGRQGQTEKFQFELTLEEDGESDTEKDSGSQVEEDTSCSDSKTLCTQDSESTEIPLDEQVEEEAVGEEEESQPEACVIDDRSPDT
Chain of 5-hydroxytryptamine receptor 2B (Homo sapiens) (P41595 whole entry): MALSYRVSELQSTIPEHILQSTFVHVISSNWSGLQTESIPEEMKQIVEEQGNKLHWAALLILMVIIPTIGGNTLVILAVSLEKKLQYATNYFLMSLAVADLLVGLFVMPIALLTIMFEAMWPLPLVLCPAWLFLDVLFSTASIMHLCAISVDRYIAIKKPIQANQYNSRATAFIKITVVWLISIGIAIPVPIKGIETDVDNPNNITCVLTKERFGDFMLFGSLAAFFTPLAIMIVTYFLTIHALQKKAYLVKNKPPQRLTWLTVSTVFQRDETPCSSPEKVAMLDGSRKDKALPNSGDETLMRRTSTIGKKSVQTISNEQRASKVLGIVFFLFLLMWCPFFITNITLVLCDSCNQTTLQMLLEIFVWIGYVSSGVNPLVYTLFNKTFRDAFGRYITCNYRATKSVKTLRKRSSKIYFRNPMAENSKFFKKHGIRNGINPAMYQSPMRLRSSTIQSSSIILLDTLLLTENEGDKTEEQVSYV
Chain of Sodium-dependent serotonin transporter (Homo sapiens) (P31645 whole entry, looked up): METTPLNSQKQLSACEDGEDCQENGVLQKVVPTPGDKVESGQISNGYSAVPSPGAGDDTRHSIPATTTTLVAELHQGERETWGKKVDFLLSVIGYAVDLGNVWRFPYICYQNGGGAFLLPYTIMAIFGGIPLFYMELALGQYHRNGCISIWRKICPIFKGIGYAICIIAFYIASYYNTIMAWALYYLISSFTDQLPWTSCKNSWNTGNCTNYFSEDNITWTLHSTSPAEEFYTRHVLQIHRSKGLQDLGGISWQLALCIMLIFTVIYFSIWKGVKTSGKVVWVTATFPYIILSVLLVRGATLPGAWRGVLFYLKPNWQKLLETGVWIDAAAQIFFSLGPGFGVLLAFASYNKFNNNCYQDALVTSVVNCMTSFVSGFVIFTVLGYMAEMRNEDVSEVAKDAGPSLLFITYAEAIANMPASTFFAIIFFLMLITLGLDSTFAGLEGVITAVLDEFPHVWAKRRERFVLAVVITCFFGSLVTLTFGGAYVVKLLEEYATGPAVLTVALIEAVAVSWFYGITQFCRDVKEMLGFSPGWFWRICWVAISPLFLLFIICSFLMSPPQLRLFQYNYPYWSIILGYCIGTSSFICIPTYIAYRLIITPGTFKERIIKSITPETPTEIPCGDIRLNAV
Chain of 5-hydroxytryptamine receptor 1B (Homo sapiens) (P28222 whole entry): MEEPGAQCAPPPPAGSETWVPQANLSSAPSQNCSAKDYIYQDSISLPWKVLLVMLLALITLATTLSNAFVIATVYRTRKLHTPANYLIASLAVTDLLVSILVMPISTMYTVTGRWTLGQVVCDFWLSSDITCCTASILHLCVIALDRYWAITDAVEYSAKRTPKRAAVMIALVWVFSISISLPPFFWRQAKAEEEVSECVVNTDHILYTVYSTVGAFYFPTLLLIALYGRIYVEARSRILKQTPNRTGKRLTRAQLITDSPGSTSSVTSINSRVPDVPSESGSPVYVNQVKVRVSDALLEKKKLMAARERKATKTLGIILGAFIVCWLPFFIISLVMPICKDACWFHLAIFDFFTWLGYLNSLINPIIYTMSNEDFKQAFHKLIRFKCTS
Chain of hERG (Q12809 whole entry): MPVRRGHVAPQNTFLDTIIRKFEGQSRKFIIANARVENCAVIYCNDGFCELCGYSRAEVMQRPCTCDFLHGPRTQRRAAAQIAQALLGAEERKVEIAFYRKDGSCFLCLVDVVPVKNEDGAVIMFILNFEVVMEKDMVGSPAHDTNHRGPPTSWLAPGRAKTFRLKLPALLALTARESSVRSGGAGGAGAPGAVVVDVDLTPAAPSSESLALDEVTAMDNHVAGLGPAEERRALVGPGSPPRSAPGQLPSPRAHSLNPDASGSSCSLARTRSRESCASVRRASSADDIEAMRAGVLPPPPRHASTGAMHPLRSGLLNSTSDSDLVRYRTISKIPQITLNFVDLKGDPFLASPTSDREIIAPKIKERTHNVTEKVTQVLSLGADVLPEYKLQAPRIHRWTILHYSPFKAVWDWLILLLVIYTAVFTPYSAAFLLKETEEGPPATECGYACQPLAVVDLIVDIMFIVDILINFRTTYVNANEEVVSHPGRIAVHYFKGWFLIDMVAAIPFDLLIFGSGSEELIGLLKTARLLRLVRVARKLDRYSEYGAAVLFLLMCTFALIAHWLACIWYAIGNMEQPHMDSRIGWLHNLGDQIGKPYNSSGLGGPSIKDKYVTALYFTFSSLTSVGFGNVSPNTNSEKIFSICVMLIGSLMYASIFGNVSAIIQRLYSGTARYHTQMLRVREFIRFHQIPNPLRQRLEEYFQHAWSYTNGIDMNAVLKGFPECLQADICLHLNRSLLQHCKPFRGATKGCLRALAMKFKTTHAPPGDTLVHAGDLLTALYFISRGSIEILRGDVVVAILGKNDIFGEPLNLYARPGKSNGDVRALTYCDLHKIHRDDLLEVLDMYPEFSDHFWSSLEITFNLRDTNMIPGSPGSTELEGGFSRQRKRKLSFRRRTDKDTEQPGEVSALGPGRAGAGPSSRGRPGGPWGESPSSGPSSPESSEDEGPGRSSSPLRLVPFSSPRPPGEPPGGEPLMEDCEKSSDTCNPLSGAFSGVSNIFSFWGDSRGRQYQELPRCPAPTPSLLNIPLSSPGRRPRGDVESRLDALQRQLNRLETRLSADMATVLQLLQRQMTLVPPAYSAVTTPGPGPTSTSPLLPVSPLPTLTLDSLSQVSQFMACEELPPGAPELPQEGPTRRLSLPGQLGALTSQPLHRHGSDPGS

solubility kinetic [1]: 17.5 µM (≈ 7.22 µg/mL)
solubility kinetic [3]: 279 µM (≈ 115 µg/mL)
Compound: CNC(=O)c1ccc(-c2cnc3ncc(Cc4ccc5ncccc5c4)n3n2)cc1F [CAPMATINIB]
inhibition in vivo at 10 mg/kg (BaF3 [2]): 17%

EC50 (BaF3 [4]): 40 nM
clearance [5]: 4.8 mL/min/kg
inhibition (Homo sapiens): 25%
inhibition [6]: 16%
half-life [7]: 426 min
Stability [8]: Stable
solubility kinetic [1]: 12.7 µM (≈ 6.32 µg/mL)
Vd [9]: 0.38 L/kg
Stability [10]: Stable
Vd [11]: 0.68 L/kg
Vd [12]: 2.25 L/kg
bioavailability [13]: 34%
bioavailability [14]: 8%
bioavailability [15]: 13%
Stability [16]: Stable
half-life [17]: 126 min
bioavailability [18]: 18%
bioavailability [19]: 20%
clearance [20]: 4.11 mL/min/kg
half-life [21]: 180 min
inhibition at 10 µM (L-type calcium channel): 6%
inhibition [22]: 11%
solubility kinetic [3]: 279 µM (≈ 139 µg/mL)
AUC(0-t) [23]: 7170 ng·h/mL
AUC(0-t) [24]: 8220 ng·h/mL
AUC(0-t) [25]: 28200 ng·h/mL
AUC/dose [26]: 464 ng.h/mL per mg/kg
inhibition [27]: 31%
inhibition [28]: 10%
Stability [29]: Stable
inhibition [30]: 16%
AUC/dose [31]: 2040 ng.h/mL per mg/kg
Stability [32]: Stable
clearance [33]: 6.7 mL/min/kg
bioavailability [34]: 61%
inhibition [35]: 34%
AUC/dose [36]: 822 ng.h/mL per mg/kg
EC50 (cells): 64 nM
Compound: COc1cc2nccc(Oc3c(F)cc(NC(=O)c4cnccc4OC)cc3F)c2cc1OCCO
inhibition at 10 µM (hERG): 8%
